Measurements reported in the supplement of paper PMC10307832.

Columns and labels:
Test in all cases: relative viability (nuclei count vs DMSO), 5 days (fraction); higher = more cells survive
NCI-H1793 = tested on: NCI-H1793
Method in brief: (§1)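 Medians of duplicate plates are given as relative viability. That measure is the nuclei count in treated wells divided by the count in vehicle wells. Counts were taken on 4× images of lung cancer cell lines in 1536-well plates, 5 days after pin-tool dosing the day after seeding with one drug alone or a fixed anchor-drug dose plus five library-drug doses (not always all listed) in √10 steps.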

CAL-12T = tested on: CAL-12T
Method in brief: as §1

HARA = tested on: HARA
Method in brief: as §1

NCI-H2342 = tested on: NCI-H2342
Method in brief: as §1

UMC-11 = tested on: UMC-11
Method in brief: as §1

NCI-H1648 = tested on: NCI-H1648
Method in brief: as §1

NCI-H2170 = tested on: NCI-H2170
Method in brief: as §1

LOU-NH91 = tested on: LOU-NH91
Method in brief: as §1

ABC-1 = tested on: ABC-1
Method in brief: as §1

EKVX = tested on: EKVX
Method in brief: as §1

NCI-H2347 = tested on: NCI-H2347
Method in brief: as §1

NCI-H1734 = tested on: NCI-H1734
Method in brief: as §1

LU99A = tested on: LU99A
Method in brief: as §1

HCC-78 = tested on: HCC-78
Method in brief: as §1

NCI-H522 = tested on: NCI-H522
Method in brief: as §1

HCC-366 = tested on: HCC-366
Method in brief: as §1

NCI-H1437 = tested on: NCI-H1437
Method in brief: as §1

NCI-H358 = tested on: NCI-H358
Method in brief: as §1

LXF-289 = tested on: LXF-289
Method in brief: as §1

COR-L 105 = tested on: COR-L 105
Method in brief: as §1

HCC-827 = tested on: HCC-827
Method in brief: as §1

NCI-H1915 = tested on: NCI-H1915
Method in brief: as §1

201T = tested on: 201T
Method in brief: as §1

Nc1cccc2c1CN(C1CCC(=O)NC1=O)C2=O (stereo unspecified) [Lenalidomide] + CC(=O)c1c(C)c2cnc(Nc3ccc(N4CCNCC4)cn3)nc2n(C2CCCC2)c1=O [Palbociclib] (partner 0.5 µM)
relative viability (NCI-H1793; first compound 0.253 µM): 0.363
relative viability (NCI-H1793; first compound 2.53 µM): 0.296
relative viability (NCI-H1793; first compound 8 µM): 0.256
relative viability (CAL-12T; first compound 0.253 µM): 0.402
relative viability (CAL-12T; first compound 0.8 µM): 0.579
relative viability (CAL-12T; first compound 2.53 µM): 0.785
relative viability (CAL-12T; first compound 8 µM): 0.472
relative viability (HARA; first compound 0.253 µM): 0.253
relative viability (HARA; first compound 2.53 µM): 0.293
relative viability (HARA; first compound 8 µM): 0.253
relative viability (NCI-H2342; first compound 0.253 µM): 0.551
relative viability (NCI-H2342; first compound 0.8 µM): 0.53
relative viability (NCI-H2342; first compound 2.53 µM): 0.502
relative viability (NCI-H2342; first compound 8 µM): 0.476
relative viability (UMC-11; first compound 0.253 µM): 0.328
relative viability (UMC-11; first compound 0.8 µM): 0.363
relative viability (UMC-11; first compound 2.53 µM): 0.308
relative viability (UMC-11; first compound 8 µM): 0.285
relative viability (NCI-H1648; first compound 0.253 µM): 0.304
relative viability (NCI-H1648; first compound 2.53 µM): 0.282
relative viability (NCI-H1648; first compound 8 µM): 0.253
relative viability (NCI-H2170; first compound 0.253 µM): 0.436
relative viability (NCI-H2170; first compound 0.8 µM): 0.374
relative viability (NCI-H2170; first compound 2.53 µM): 0.433
relative viability (NCI-H2170; first compound 8 µM): 0.314
relative viability (LOU-NH91; first compound 0.253 µM): 0.564
relative viability (LOU-NH91; first compound 0.8 µM): 0.515
relative viability (LOU-NH91; first compound 2.53 µM): 0.487
relative viability (LOU-NH91; first compound 8 µM): 0.429
relative viability (ABC-1; first compound 0.253 µM): 0.577
relative viability (ABC-1; first compound 0.8 µM): 0.518
relative viability (ABC-1; first compound 2.53 µM): 0.904
relative viability (ABC-1; first compound 8 µM): 0.671
relative viability (EKVX; first compound 0.253 µM): 0.415
relative viability (EKVX; first compound 0.8 µM): 0.309
relative viability (EKVX; first compound 2.53 µM): 0.355
relative viability (EKVX; first compound 8 µM): 0.372
relative viability (NCI-H2347; first compound 0.253 µM): 0.492
relative viability (NCI-H2347; first compound 0.8 µM): 0.446
relative viability (NCI-H2347; first compound 2.53 µM): 0.494
relative viability (NCI-H2347; first compound 8 µM): 0.424
relative viability (NCI-H1734; first compound 0.253 µM): 0.348
relative viability (NCI-H1734; first compound 0.8 µM): 0.392
relative viability (NCI-H1734; first compound 2.53 µM): 0.364
relative viability (NCI-H1734; first compound 8 µM): 0.291
relative viability (LU99A; first compound 0.253 µM): 0.409
relative viability (LU99A; first compound 0.8 µM): 0.39
relative viability (LU99A; first compound 2.53 µM): 0.361
relative viability (LU99A; first compound 8 µM): 0.286
relative viability (HCC-78; first compound 0.253 µM): 0.48
relative viability (HCC-78; first compound 0.8 µM): 0.416
relative viability (HCC-78; first compound 2.53 µM): 0.463
relative viability (HCC-78; first compound 8 µM): 0.47
relative viability (NCI-H522; first compound 0.253 µM): 0.91
relative viability (NCI-H522; first compound 0.8 µM): 1
relative viability (NCI-H522; first compound 2.53 µM): 1.19
relative viability (NCI-H522; first compound 8 µM): 0.716
relative viability (HCC-366; first compound 0.253 µM): 0.437
relative viability (HCC-366; first compound 0.8 µM): 0.389
relative viability (HCC-366; first compound 2.53 µM): 0.505
relative viability (HCC-366; first compound 8 µM): 0.353
relative viability (NCI-H1437; first compound 0.253 µM): 0.331
relative viability (NCI-H1437; first compound 0.8 µM): 0.246
relative viability (NCI-H1437; first compound 2.53 µM): 0.359
relative viability (NCI-H1437; first compound 8 µM): 0.353
relative viability (NCI-H358; first compound 0.8 µM): 0.139
relative viability (NCI-H358; first compound 2.53 µM): 0.142
relative viability (NCI-H358; first compound 8 µM): 0.132
relative viability (LXF-289; first compound 0.253 µM): 0.616
relative viability (LXF-289; first compound 0.8 µM): 0.63
relative viability (LXF-289; first compound 2.53 µM): 0.657
relative viability (LXF-289; first compound 8 µM): 0.668
relative viability (COR-L 105; first compound 0.253 µM): 0.394
relative viability (COR-L 105; first compound 0.8 µM): 0.412
relative viability (COR-L 105; first compound 2.53 µM): 0.409
relative viability (COR-L 105; first compound 8 µM): 0.413
relative viability (HCC-827; first compound 0.253 µM): 0.506
relative viability (HCC-827; first compound 0.8 µM): 0.432
relative viability (HCC-827; first compound 2.53 µM): 0.538
relative viability (HCC-827; first compound 8 µM): 0.489
relative viability (NCI-H1915; first compound 0.253 µM): 0.549
relative viability (NCI-H1915; first compound 0.8 µM): 0.554
relative viability (NCI-H1915; first compound 2.53 µM): 0.578
relative viability (NCI-H1915; first compound 8 µM): 0.486
relative viability (201T; first compound 0.253 µM): 0.394
relative viability (201T; first compound 0.8 µM): 0.359
relative viability (201T; first compound 2.53 µM): 0.38
relative viability (201T; first compound 8 µM): 0.351

Nc1cccc2c1CN(C1CCC(=O)NC1=O)C2=O (stereo unspecified) [Lenalidomide] + Cc1cc(Nc2cc(N3CCN(C)CC3)nc(Sc3ccc(NC(=O)C4CC4)cc3)n2)n[nH]1 [Tozasertib] (partner 0.1 µM)
relative viability (NCI-H1793; first compound 0.253 µM): 0.356
relative viability (NCI-H1793; first compound 2.53 µM): 0.383
relative viability (NCI-H1793; first compound 8 µM): 0.349
relative viability (CAL-12T; first compound 0.253 µM): 0.3
relative viability (CAL-12T; first compound 0.8 µM): 0.302
relative viability (CAL-12T; first compound 2.53 µM): 0.463
relative viability (CAL-12T; first compound 8 µM): 0.352
relative viability (HARA; first compound 0.253 µM): 0.0944
relative viability (HARA; first compound 2.53 µM): 0.133
relative viability (HARA; first compound 8 µM): 0.103
relative viability (NCI-H2342; first compound 0.253 µM): 0.504
relative viability (NCI-H2342; first compound 0.8 µM): 0.49
relative viability (NCI-H2342; first compound 2.53 µM): 0.649
relative viability (NCI-H2342; first compound 8 µM): 0.441
relative viability (UMC-11; first compound 0.253 µM): 0.192
relative viability (UMC-11; first compound 0.8 µM): 0.21
relative viability (UMC-11; first compound 2.53 µM): 0.192
relative viability (UMC-11; first compound 8 µM): 0.195
relative viability (NCI-H1648; first compound 0.253 µM): 0.578
relative viability (NCI-H1648; first compound 0.8 µM): 0.317
relative viability (NCI-H1648; first compound 2.53 µM): 0.509
relative viability (NCI-H1648; first compound 8 µM): 0.599
relative viability (NCI-H2170; first compound 0.253 µM): 0.612
relative viability (NCI-H2170; first compound 0.8 µM): 0.608
relative viability (NCI-H2170; first compound 2.53 µM): 0.747
relative viability (NCI-H2170; first compound 8 µM): 0.753
relative viability (LOU-NH91; first compound 0.253 µM): 0.715
relative viability (LOU-NH91; first compound 0.8 µM): 0.737
relative viability (LOU-NH91; first compound 2.53 µM): 0.715
relative viability (LOU-NH91; first compound 8 µM): 0.73
relative viability (ABC-1; first compound 0.253 µM): 0.199
relative viability (ABC-1; first compound 0.8 µM): 0.17
relative viability (ABC-1; first compound 2.53 µM): 0.184
relative viability (ABC-1; first compound 8 µM): 0.175
relative viability (EKVX; first compound 0.253 µM): 0.396
relative viability (EKVX; first compound 0.8 µM): 0.41
relative viability (EKVX; first compound 2.53 µM): 0.415
relative viability (EKVX; first compound 8 µM): 0.372
relative viability (NCI-H2347; first compound 0.253 µM): 0.633
relative viability (NCI-H2347; first compound 0.8 µM): 0.414
relative viability (NCI-H2347; first compound 2.53 µM): 0.643
relative viability (NCI-H2347; first compound 8 µM): 0.599
relative viability (NCI-H1734; first compound 0.253 µM): 0.312
relative viability (NCI-H1734; first compound 0.8 µM): 0.271
relative viability (NCI-H1734; first compound 2.53 µM): 0.232
relative viability (NCI-H1734; first compound 8 µM): 0.238
relative viability (LU99A; first compound 0.253 µM): 0.32
relative viability (LU99A; first compound 0.8 µM): 0.284
relative viability (LU99A; first compound 2.53 µM): 0.29
relative viability (LU99A; first compound 8 µM): 0.276
relative viability (HCC-78; first compound 0.253 µM): 0.537
relative viability (HCC-78; first compound 0.8 µM): 0.44
relative viability (HCC-78; first compound 2.53 µM): 0.443
relative viability (HCC-78; first compound 8 µM): 0.49
relative viability (NCI-H522; first compound 0.253 µM): 0.574
relative viability (NCI-H522; first compound 2.53 µM): 0.52
relative viability (NCI-H522; first compound 8 µM): 0.511
relative viability (HCC-366; first compound 0.253 µM): 0.14
relative viability (HCC-366; first compound 0.8 µM): 0.128
relative viability (HCC-366; first compound 2.53 µM): 0.154
relative viability (HCC-366; first compound 8 µM): 0.131
relative viability (NCI-H1437; first compound 0.253 µM): 0.432
relative viability (NCI-H1437; first compound 0.8 µM): 0.443
relative viability (NCI-H1437; first compound 2.53 µM): 0.441
relative viability (NCI-H1437; first compound 8 µM): 0.47
relative viability (NCI-H358; first compound 0.253 µM): 0.12
relative viability (NCI-H358; first compound 0.8 µM): 0.107
relative viability (NCI-H358; first compound 2.53 µM): 0.103
relative viability (NCI-H358; first compound 8 µM): 0.0989
relative viability (LXF-289; first compound 0.253 µM): 0.206
relative viability (LXF-289; first compound 0.8 µM): 0.191
relative viability (LXF-289; first compound 2.53 µM): 0.25
relative viability (LXF-289; first compound 8 µM): 0.229
relative viability (COR-L 105; first compound 0.253 µM): 0.351
relative viability (COR-L 105; first compound 0.8 µM): 0.31
relative viability (COR-L 105; first compound 2.53 µM): 0.402
relative viability (COR-L 105; first compound 8 µM): 0.373
relative viability (HCC-827; first compound 0.253 µM): 0.47
relative viability (HCC-827; first compound 0.8 µM): 0.41
relative viability (HCC-827; first compound 2.53 µM): 0.455
relative viability (HCC-827; first compound 8 µM): 0.462
relative viability (NCI-H1915; first compound 0.253 µM): 0.45
relative viability (NCI-H1915; first compound 0.8 µM): 0.471
relative viability (NCI-H1915; first compound 2.53 µM): 0.437
relative viability (NCI-H1915; first compound 8 µM): 0.527
relative viability (201T; first compound 0.253 µM): 1.01
relative viability (201T; first compound 2.53 µM): 1.02
relative viability (201T; first compound 8 µM): 1.02
